The target of one assay is T1, human Kv1.5 (Homo sapiens, UniProt P22460).
T1 construct: KV1.5 (NM_002234), and TASK-1 (NM_002246); expressed in transfected cells; host or cells: HEK-293 (transient transfection)
Description: Whole-cell patch-clamp in transfected HEK-293 cells, KV1.5. Type of assay: cell-based. To be noted: 10 μM and 100 μM, +40 mV. The protocol:
The human embryonic kidney 293 (HEK-293) cell line was obtained from the American Type Culture Collection. HEK-293 cells were cultured in Dulbecco’s modified Eagle’s medium (DMEM-F12, Invitrogen Life Technologies) supplemented with 5% (v/v) fetal bovine serum (FBS) (Thermo Fisher Scientific) and 1% antibiotics (penicillin 100 U/ml y streptomycin 100 μg/ml) (Gibco, Thermo Fisher). The cells were maintained at 37 °C and 5% CO2 atmosphere.
For the electrophysiological experiments, HEK-293 cells were transiently transfected with cDNA encoding human NaV1.5 (plasmid 145,374, Addgene), KV1.5 (NM_002234), and TASK-1 (NM_002246). […] The cells were incubated for 4 h in transfection medium OptiMEM (Invitrogen). […]
For Nav1.5, the effect of 6f at both concentrations was tested using a repetitive single test voltage pulse at −10 mV (during 20 ms) from a holding potential of −80 mV, with intervals of 5s between pulses. For Kv1.5 and TASK-1, ramp voltage protocols were applied with pulse intervals of 20 s, and the currents were analyzed at +40 mV. […]
After recording currents with stable amplitudes, the cells were treated with 6f and applied from the bath solution. Currents were continuously recorded during repetitive pulses until a stable effect was achieved. […] The inhibition percentage was calculated as follows: Inℎibition (%) = 100 ∗ (Icontrol − Idrug)/Icontrol.

In assay [1] the test system is human atrial cardiomyocytes from patients with AF. Description: Patch-clamp action potential recordings, atrial cardiomyocytes of atrial fibrillation patients. Type of assay: cell-based. How it is done: A total of 10 patients with sinus rhythm (SR) (N = 5) or atrial fibrillation (AF) (N = 5) undergoing open heart surgery for coronary artery bypass grafting, heart valve replacement or heart transplantation were included in the study (Table S7). A written informed consent was given by all patients. The study protocol involving human tissue samples was approved by the responsible Ethics Committee of the Medical Faculty of Heidelberg University (Germany; S-017/2013) and was conducted in accordance with the 1964 Declaration of Helsinki.
The right atrial human tissue samples were transported in chilled Ca^2+-free solution (100 mM NaCl, 10 mM KCl, 1.2 mM KH2PO4, 5 mM MgSO4, 50 mM taurine, 5 mM 3-(N-morpholino)propanesulfonic acid (MOPS), 30 mM 2,3-butanedione monoxime and 20 mM glucose, pH 7.0 with NaOH). After dissection into small chunks, the samples were rinsed for 5 minutes with calcium-free Tyrode's solution, which was oxygenated with 100% O2 at 37 °C. The samples were then digested with collagenase type I (288 U/ml; Worthington) and protease type XXIV (5 mg/ml; Sigma-Aldrich, Steinheim, Germany) for 10 to 15 min, followed by an increase in calcium concentration to 0.2 mM. After an additional 35 min of agitation in protease-free solution, rod-shaped single cardiomyocytes were harvested. The suspension was centrifuged, and the cells were resuspended in storage (“Kraftbrühe”, KB) medium (20 mM KCl, 10 mM KH2PO4, 25 mM glucose, 40 mM D-Mannitol, 70 mM K glutamate, 10 mM β-hydroxybutyrate, 20 mM taurine, 10 mM ethylene glycol tetraacetic acid (EGTA), and 1% albumin) until usage in patch-clamp experiments.
Patch-clamp glass pipettes were fabricated from borosilicate glass (1B120F-4; World Precision Instruments). After back-filling with patch-clamp internal solution (134 mM K gluconate, 6 mM NaCl, 1.2 mM MgCl2, 1 mM Mg-ATP, 10 mM HEPES, pH 7.2 with KOH), tip resistances ranged from 5 to 10 MΩ. All experiments were carried out at room temperature under constant superfusion with patch-clamp extracellular solution containing 137 mM NaCl, 5.4 mM KCl, 1 mM MgCl2, 2 mM CaCl2, 10 mM HEPES, 10 mM glucose (pH 7.3 with NaOH). AP-recordings were performed in current clamp mode: The holding current was adjusted such that the cell’s resting membrane potential was approximately −70 mV at baseline. APs were induced by short (5 ms) depolarizing current pulses at a rate of 0.5 Hz. Data was not adjusted for potential differences caused by liquid junctions, and no leak subtraction was performed.
Data acquisition and analysis were performed using the pCLAMP10 software (Axon Instruments) and statistical analysis was done using Prism 8 (GraphPad Software). Data is presented as the mean ± standard error of the mean (SEM). Statistical comparisons were made using Dunnett’s post hoc test. A p value of < 0.05 was considered significant.

From article PMC12131194, “Rational design, synthesis, and evaluation of novel polypharmacological compounds targeting NaV1.5, KV1.5, and K2P channels for atrial fibrillation” (The Journal of Biological Chemistry, 2025) come the findings set out here.

T1 sequence (P22460 whole entry): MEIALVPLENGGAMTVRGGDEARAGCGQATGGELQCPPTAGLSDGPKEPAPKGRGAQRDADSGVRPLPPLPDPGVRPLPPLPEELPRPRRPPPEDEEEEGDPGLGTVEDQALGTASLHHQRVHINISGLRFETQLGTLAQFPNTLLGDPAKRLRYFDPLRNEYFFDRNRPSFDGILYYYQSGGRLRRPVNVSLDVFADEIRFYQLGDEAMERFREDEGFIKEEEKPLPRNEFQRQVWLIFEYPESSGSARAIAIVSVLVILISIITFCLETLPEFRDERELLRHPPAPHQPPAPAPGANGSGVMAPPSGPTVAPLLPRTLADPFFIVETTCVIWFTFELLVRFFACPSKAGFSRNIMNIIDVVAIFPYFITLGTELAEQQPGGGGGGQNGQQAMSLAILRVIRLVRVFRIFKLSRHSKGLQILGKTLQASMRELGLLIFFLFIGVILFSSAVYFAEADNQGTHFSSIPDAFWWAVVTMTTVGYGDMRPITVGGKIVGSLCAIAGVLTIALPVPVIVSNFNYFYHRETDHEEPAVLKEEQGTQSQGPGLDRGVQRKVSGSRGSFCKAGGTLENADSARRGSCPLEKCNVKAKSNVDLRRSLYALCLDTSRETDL

Take `CCCCN(CCCC)CC(=O)Nc1ccc(OC)cc1OC` [Compound 6f, 2-(dibutylamine)-N-(2,4-dimethoxiphenyl)acetamide]: the “Blockade of KV1.5 in HEK cells” value at human Kv1.5 is recorded as “significant blockade by 6f only at 100 μM”. Also, the APD50 vs baseline result in assay [1] (AF, 6.25 μM) is recorded as “increase in ADP50 with 6.25 μM 6f was significant”. In addition, in assay [1] (AF, 1, 6.25 and 12.5 μM), the APD50 vs baseline entry was “concentration-dependent prolongation trend”, the APD90 vs baseline entry is recorded as “concentration-dependent prolongation trend”, the “Action potential amplitude (APA) vs baseline” value is listed as “no changes” and the “Maximal upstroke velocity vs baseline” value is listed as “no changes”. Besides, in assay [1] (AF, 1, 6.25 and 12.5 μM), the “Resting membrane potential (RMP)” value was “significant concentration-dependent shift in the RMP to more negative values”.
